{"source": "patent US20240024479A1", "about": "“NK CELLS OR T CELLS EXPRESSING CHIMERIC HEMATOPOIETIC GROWTH FACTOR RECEPTORS AND METHODS OF USE” (The United States of America, as represented by the …, priority 2020, published 2024)", "key": {"c-MPL+ KHYG-1 cells": {"test_system": "c-MPL+ KHYG-1 cells", "assay": "In vitro cell expansion of c-MPL+ KHYG-1 cells", "format": "cell-based, human", "source_text": "Lentiviral production and transduction: Lentivirus gene expression vectors encoding EGFP-P2A linker-human EPOR or EGFP-P2A-human c-MPL were cloned according to our design by VectorBuilder (TX, USA). Plasmid DNA for the above and pCMV-dR8.2 dvpr and pCMV-VSV-G packaging plasmids was purified using ZymoPUREII-EndoZero plasmid maxiprep kit (Zymo Research, CA). Lentiviral particles were generated with HEK293T cells and Lipofectamine3000 reagent (Thermo Fisher Scientific, MA) following the manufacturers' instructions. Viral supernatant was harvested at 24 and 48 hours, pooled, and concentrated with lenti-X concentrator (Takara Bio, Japan) or by centrifugation at 18,600 rpm for 2 hours at 4° C. […] After 5 days post-transduction, cells were stained and sorted with fluorescence-activated cell sorting (FACS) using a BD FACSAria II to purify GFP^+EPOR^+ and GFP^+c-MPL^+ NK cell populations.\nIn vitro cell expansion cultures: The NK-92 (5×10^4 cell/ml) and KHYG-1 (1×10^4 cell/ml) cells were cultured in 1 ml of complete medium in 24-well plate. […] Trypan blue negative cells were counted every other day. […] Viable cells were counted and percentage of GFP^+ cells was acquired on indicated days (NK: day 4 and 6, T: day 3 and 6). The fold change of GFP^+ cells was calculated by multiplying the counted cell number times the fraction GFP^+."}, "c-MPL+ NK-92 cells": {"test_system": "c-MPL+ NK-92 cells", "assay": "Short-term expansion and apoptosis assay, c-MPL+ NK-92", "format": "cell-based, human", "details": "TPO plus LD IL-2 vs LD IL-2 alone; day 3", "method": "In vitro cell expansion cultures: The NK-92 (5×10^4 cell/ml) and KHYG-1 (1×10^4 cell/ml) cells were cultured in 1 ml of complete medium in 24-well plate. […] Trypan blue negative cells were counted every other day. […] For competitive primary NK and T cell expansion assay, all transduced cells (5×10^5/ml for NK and 4×10^5/ml for T cell) containing a mixture of GFP positive (transduced) and GFP negative (untransduced) cells were plated on day 0. Fresh medium with appropriate supplements was replaced every other day for NK cells and only on day 3 for T cell experiment. Viable cells were counted and percentage of GFP^+ cells was acquired on indicated days (NK: day 4 and 6, T: day 3 and 6). The fold change of GFP^+ cells was calculated by multiplying the counted cell number times the fraction GFP^+.\nStaining was performed in phosphate-buffered saline (PBS) with 2% FBS and 2 mM EDTA and analyzed on a BD LSRFortessa machine. If intracellular staining was required, BD cytofix/cytoperm (BD Biosciences) was applied for cell fixation and permeabilization after surface staining. The apoptosis assay was performed using PE annexinV apoptosis detection kit (BD Biosciences). The data were analyzed on FlowJo software."}, "[1]": {"test_system": "GFP+ MPL+ transduced cells", "assay": "Cell surface phenotype of c-MPL-transduced primary NK cells", "format": "cell-based, human", "method": "Human NK cells were stimulated and transduced with c-MPL/GFP lentiviral vectors. […] After 4 days, cellular function was assessed by mixing at a 1:1 ratio with K562 target cells and assessing (FIG. 13A) NK cell degranulation (by surface anti-CD107a staining) two hours later, or (FIG. 13B) intracellular IFN-γ and TNF-α four hours after addition of K562. Results for gated GFP transduced cells or independent untransduced cultures from the same donors are shown. The cell surface phenotype of the NK cells was also assessed after 4 days of culture with cytokines as indicated (FIG. 13C).\nFlow cytometry, reagents and pathway analysis: Fluorochrome-conjugated monoclonal antibodies were used as follows: BD Biosciences: CD56-PE-Cy7 (NCAM16.2), CD3-PE (UCHT1), c-MPL-PE (1.6.1), STAT5(pY694)-Alexa Fluor647 (47/stat5(pY694)), NKp46-APC (9E2), NKp44-PE (p44-8), FAS-PE (DX2) CD62L-V450 (DREG-56); R&D systems: EPOR-PE (FAB307P); Biolegend: Bc1-2-PE (100), TRAIL-APC (RIK-2), CXCR4-BV421 (12G5), KIR3DL1-BV421 (DX9); Abcam: Bcl-xL-PE (ab208747); Cell signaling technology: P-p44/42 MAPK-Alexa Fluor647 (E10) and p-S6 ribosomal protein-PE (D57.2.2E); Beckman Coulter: NKG2A-PE (Z199), KIR2DL1/S1-PE (EB6B), KIR2DL2/3-PE/Cy5.5 (GL183). Staining was performed in phosphate-buffered saline (PBS) with 2% FBS and 2 mM EDTA and analyzed on a BD LSRFortessa machine. […] The data were analyzed on FlowJo software."}, "[2]": {"test_system": "c-MPL transduced NK cells", "assay": "Proliferation of c-MPL-expressing human NK cells with thrombopoietin mimetics", "format": "cell-based", "details": "4-5 days culture", "method": "FIGS. 16A-16C show proliferation of human NK cells transduced to express GFP and c-MPL cultured for 4-5 days with the indicated concentrations of thrombopoietin (FIG. 16A), romiplostim (FIG. 16B), or eltrombopag (FIG. 16C). […] Mean and SEM of results from 3 blood donors are shown.\nNK cells from PBMC from three blood donors were stimulated and transduced to express GFP and c-MPL, then were cultured for 4-5 days with thrombopoietin, romiplostim, or eltrombopag."}, "[3]": {"test_system": "untransduced control cells", "assay": "Degranulation assay and cytokine production, untransduced control cells", "format": "cell-based, human", "details": "TPO administration", "method": "To examine degranulation, cells were washed after two hours and stained with anti-CD107a (H4A3) (BioLegend). To assay cytokine production, GolgiPlug and GolgiStop (BD Biosciences) were added at manufacturer's recommended concentrations within the first hour of co-culture with K562. After 4 hours, cells were washed and stained for cell surface markers, then stained intracellularly with mAb recognizing TNF-α (Mab 11) and IFN-γ (B27) (BD Biosciences)."}}}
{"substance": "TPO: recombinant human thrombopoietin, ligand of the c-MPL receptor; 50 ng/ml rhTPO (R&D)", "values": [{"measurement": "cell growth of transduced KHYG-1 cells", "setting": "c-MPL+ KHYG-1 cells; TPO alone", "value": "insufficient to maintain cell growth"}, {"measurement": "proliferative response of receptor-transduced KHYG-1 NK cells", "setting": "c-MPL+ KHYG-1 cells; TPO with low-dose IL-2 (1 U/ml or 5 U/ml)", "value": "synergized"}, {"measurement": "proportion of dead/apoptotic cells", "setting": "c-MPL+ NK-92 cells", "value": "significantly lower proportions of dead/apoptotic cells"}, {"measurement": "CD62L expression", "setting": "[1]; TPO added to media containing 25 U/ml IL-2, normalized to each donor", "value": "significantly increased CD62L expression"}, {"measurement": "NK cell phenotype other than CD62L", "setting": "[1]; TPO added to media containing 25 U/ml of IL-2", "value": "no phenotypic differences"}, {"measurement": "proliferation of c-MPL transduced NK cells", "setting": "[2]", "value": "induce proliferation"}, {"measurement": "degranulation or cytokine production of untransduced control cells", "setting": "[3]", "value": "no measured effects"}]}
